The values that follow come from ChEMBL document CHEMBL5338815 (J Med Chem, 2023).

pIC50: −log10 of the molar value. Calls of active or inactive are those of the source. No cut-off for these calls is given here. A value given as a limit tells only on which side of the number the result lay.

Data set [1] in a line: Toxicity in Balb/c mouse xenografted with human PANC-1 cells assessed as body weight change at 2 mg/kg, ip treated for 22 days relative to control. Type of data set: organism-based. The note with it: in vivo, 528 h, time 22 day. Background: A xenograft is tissue or cells of one species grown in another, often human tumour cells in immunodeficient mice.
Data set [2] is described as follows: AUC (0 to t) in ICR mouse at 2 mg/kg, ip measured upto 24 hrs by LC-MS/MS analysis. It counts as ADME, organism-based. Also noted: dose 2 mg/kg, time < 24 hrs, route ip. The note with it: in vivo.
In data set [3] the target is T1, Histone-lysine N-methyltransferase EHMT1 (Homo sapiens, UniProt Q9H9B1).
T1 sequence (Q9H9B1 whole entry): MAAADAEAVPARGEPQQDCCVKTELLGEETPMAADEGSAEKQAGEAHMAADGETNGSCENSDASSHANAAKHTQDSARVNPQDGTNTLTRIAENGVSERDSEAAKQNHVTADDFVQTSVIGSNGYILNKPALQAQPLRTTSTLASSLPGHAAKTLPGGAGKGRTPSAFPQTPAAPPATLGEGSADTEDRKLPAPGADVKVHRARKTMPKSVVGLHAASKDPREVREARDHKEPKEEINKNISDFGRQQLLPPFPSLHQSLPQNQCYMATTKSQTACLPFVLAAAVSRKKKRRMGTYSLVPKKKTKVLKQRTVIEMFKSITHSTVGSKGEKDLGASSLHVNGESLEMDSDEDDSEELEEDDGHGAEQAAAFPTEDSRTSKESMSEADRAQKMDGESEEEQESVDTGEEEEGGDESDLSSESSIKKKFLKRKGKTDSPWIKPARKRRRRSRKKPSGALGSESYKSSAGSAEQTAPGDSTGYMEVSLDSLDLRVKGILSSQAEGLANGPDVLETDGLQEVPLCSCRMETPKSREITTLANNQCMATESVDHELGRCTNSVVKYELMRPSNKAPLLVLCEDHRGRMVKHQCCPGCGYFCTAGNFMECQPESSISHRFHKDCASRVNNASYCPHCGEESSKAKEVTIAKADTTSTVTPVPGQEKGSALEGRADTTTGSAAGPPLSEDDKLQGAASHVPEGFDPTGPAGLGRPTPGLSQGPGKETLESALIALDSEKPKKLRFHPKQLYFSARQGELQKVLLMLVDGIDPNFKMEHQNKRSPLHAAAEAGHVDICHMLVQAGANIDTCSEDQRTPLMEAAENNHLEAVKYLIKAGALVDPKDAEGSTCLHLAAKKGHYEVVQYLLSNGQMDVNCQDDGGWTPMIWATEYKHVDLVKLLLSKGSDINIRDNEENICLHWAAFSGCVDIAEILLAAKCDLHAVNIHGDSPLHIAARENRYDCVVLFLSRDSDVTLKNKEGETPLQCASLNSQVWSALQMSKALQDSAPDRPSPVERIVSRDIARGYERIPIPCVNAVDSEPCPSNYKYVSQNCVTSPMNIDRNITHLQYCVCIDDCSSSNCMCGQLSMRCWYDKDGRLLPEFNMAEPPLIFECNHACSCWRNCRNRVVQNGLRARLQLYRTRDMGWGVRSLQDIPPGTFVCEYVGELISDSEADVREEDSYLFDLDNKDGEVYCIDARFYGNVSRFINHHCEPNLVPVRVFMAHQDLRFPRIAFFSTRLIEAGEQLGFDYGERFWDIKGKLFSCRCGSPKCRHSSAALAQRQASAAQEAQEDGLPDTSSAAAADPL
Briefly: Inhibition of GLP (unknown origin) by AlphaLISA assay. (In general: Alpha assays give light when donor and acceptor beads are brought close together.)

Data set [4] addresses T2, Histone-lysine N-methyltransferase EHMT2 (Homo sapiens) (UniProt Q96KQ7).
T2 sequence (whole entry): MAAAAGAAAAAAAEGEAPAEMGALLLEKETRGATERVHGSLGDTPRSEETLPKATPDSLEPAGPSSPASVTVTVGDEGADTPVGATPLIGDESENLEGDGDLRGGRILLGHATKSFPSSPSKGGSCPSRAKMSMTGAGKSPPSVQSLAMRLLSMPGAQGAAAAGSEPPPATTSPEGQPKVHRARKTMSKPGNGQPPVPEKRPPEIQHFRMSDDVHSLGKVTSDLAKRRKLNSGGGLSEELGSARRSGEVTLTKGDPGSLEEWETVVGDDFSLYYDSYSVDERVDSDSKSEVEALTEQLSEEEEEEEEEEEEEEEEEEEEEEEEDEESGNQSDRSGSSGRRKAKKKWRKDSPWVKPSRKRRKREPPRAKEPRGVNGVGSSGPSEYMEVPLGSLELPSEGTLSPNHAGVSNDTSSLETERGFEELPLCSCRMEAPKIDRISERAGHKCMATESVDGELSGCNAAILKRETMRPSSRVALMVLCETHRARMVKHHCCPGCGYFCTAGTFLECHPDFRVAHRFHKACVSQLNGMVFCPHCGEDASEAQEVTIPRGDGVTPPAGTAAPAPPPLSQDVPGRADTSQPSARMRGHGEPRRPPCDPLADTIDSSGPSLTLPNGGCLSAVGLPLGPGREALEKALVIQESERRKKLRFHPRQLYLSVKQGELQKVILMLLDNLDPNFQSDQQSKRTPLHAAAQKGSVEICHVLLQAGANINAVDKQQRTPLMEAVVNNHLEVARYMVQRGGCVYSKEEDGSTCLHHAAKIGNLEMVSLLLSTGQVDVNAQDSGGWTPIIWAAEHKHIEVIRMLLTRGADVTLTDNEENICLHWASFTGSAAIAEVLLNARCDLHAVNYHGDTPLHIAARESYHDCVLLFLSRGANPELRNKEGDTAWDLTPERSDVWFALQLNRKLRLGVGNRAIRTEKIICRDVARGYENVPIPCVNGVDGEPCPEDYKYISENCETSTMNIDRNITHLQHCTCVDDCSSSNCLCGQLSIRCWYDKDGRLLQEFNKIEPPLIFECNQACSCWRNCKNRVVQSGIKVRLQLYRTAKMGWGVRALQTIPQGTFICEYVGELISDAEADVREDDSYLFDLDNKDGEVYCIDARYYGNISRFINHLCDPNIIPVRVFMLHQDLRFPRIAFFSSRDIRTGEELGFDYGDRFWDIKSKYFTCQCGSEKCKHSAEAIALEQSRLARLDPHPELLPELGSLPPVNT
Briefly: Binding affinity to G9a in human MDA-MB-231 cells assessed as protein stabilization at 37 to 41.7 degC at 10 uM incubated for 15 hrs in presence of G9a antibody by CETSA. It counts as cell-based.

The target in data set [5] is T2, Histone-lysine N-methyltransferase EHMT2 (Homo sapiens). As to the kind of experiment: Covalent inhibition of recombinant G9a (unknown origin) assessed as adduct formation intensity by mass spectrometric analysis. The note with it: time <= 16.0 hrs, TDE = time-dependent effect.
The target in data set [6] is Histone-lysine N-methyltransferase EZH2 (Homo sapiens, UniProt Q15910). Briefly: Inhibition of EZH2 (unknown origin).
The target of data set [7] is T2, Histone-lysine N-methyltransferase EHMT2 (Homo sapiens). As to the kind of experiment: Covalent inhibition of recombinant G9a (unknown origin) assessed as adduct formation intensity by measuring mass after 12 hrs by mass spectrometric analysis.
Data set [8] concerns the target Histone-lysine N-methyltransferase 2B (Homo sapiens, UniProt Q9UMN6). Briefly: Inhibition of MLL4 (unknown origin).
In the next data set the test system is MDA-MB-231. As to the kind of experiment: Inhibition of colony formation in human MDA-MB-231 cells at […] incubated for 14 days drug medium changed for every 2 days by crystal violet staining based analysis. Type of data set: cell-based. The note with it: dose 2.5 µM, time 14.0 day.

Chain of Histone-lysine N-methyltransferase EZH2 (Q15910 whole entry): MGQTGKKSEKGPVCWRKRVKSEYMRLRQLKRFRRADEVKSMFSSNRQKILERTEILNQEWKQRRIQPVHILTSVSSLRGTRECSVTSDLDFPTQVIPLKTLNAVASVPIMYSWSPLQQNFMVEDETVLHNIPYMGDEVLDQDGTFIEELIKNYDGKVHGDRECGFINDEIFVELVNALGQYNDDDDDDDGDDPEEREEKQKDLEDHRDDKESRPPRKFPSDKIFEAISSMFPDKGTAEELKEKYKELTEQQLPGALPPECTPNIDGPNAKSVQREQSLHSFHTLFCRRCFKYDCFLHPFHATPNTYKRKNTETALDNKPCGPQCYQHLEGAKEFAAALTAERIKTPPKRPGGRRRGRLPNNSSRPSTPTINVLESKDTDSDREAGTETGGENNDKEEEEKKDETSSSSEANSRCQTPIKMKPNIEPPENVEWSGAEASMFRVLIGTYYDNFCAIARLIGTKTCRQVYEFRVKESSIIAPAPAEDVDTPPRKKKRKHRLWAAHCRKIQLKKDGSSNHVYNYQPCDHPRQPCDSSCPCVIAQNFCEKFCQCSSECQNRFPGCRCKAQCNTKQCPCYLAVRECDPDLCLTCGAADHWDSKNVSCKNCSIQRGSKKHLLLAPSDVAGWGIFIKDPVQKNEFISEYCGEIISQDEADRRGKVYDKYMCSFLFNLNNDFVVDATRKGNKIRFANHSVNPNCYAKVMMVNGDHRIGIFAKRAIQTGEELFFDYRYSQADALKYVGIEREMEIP
Chain of Histone-lysine N-methyltransferase 2B (Q9UMN6 whole entry): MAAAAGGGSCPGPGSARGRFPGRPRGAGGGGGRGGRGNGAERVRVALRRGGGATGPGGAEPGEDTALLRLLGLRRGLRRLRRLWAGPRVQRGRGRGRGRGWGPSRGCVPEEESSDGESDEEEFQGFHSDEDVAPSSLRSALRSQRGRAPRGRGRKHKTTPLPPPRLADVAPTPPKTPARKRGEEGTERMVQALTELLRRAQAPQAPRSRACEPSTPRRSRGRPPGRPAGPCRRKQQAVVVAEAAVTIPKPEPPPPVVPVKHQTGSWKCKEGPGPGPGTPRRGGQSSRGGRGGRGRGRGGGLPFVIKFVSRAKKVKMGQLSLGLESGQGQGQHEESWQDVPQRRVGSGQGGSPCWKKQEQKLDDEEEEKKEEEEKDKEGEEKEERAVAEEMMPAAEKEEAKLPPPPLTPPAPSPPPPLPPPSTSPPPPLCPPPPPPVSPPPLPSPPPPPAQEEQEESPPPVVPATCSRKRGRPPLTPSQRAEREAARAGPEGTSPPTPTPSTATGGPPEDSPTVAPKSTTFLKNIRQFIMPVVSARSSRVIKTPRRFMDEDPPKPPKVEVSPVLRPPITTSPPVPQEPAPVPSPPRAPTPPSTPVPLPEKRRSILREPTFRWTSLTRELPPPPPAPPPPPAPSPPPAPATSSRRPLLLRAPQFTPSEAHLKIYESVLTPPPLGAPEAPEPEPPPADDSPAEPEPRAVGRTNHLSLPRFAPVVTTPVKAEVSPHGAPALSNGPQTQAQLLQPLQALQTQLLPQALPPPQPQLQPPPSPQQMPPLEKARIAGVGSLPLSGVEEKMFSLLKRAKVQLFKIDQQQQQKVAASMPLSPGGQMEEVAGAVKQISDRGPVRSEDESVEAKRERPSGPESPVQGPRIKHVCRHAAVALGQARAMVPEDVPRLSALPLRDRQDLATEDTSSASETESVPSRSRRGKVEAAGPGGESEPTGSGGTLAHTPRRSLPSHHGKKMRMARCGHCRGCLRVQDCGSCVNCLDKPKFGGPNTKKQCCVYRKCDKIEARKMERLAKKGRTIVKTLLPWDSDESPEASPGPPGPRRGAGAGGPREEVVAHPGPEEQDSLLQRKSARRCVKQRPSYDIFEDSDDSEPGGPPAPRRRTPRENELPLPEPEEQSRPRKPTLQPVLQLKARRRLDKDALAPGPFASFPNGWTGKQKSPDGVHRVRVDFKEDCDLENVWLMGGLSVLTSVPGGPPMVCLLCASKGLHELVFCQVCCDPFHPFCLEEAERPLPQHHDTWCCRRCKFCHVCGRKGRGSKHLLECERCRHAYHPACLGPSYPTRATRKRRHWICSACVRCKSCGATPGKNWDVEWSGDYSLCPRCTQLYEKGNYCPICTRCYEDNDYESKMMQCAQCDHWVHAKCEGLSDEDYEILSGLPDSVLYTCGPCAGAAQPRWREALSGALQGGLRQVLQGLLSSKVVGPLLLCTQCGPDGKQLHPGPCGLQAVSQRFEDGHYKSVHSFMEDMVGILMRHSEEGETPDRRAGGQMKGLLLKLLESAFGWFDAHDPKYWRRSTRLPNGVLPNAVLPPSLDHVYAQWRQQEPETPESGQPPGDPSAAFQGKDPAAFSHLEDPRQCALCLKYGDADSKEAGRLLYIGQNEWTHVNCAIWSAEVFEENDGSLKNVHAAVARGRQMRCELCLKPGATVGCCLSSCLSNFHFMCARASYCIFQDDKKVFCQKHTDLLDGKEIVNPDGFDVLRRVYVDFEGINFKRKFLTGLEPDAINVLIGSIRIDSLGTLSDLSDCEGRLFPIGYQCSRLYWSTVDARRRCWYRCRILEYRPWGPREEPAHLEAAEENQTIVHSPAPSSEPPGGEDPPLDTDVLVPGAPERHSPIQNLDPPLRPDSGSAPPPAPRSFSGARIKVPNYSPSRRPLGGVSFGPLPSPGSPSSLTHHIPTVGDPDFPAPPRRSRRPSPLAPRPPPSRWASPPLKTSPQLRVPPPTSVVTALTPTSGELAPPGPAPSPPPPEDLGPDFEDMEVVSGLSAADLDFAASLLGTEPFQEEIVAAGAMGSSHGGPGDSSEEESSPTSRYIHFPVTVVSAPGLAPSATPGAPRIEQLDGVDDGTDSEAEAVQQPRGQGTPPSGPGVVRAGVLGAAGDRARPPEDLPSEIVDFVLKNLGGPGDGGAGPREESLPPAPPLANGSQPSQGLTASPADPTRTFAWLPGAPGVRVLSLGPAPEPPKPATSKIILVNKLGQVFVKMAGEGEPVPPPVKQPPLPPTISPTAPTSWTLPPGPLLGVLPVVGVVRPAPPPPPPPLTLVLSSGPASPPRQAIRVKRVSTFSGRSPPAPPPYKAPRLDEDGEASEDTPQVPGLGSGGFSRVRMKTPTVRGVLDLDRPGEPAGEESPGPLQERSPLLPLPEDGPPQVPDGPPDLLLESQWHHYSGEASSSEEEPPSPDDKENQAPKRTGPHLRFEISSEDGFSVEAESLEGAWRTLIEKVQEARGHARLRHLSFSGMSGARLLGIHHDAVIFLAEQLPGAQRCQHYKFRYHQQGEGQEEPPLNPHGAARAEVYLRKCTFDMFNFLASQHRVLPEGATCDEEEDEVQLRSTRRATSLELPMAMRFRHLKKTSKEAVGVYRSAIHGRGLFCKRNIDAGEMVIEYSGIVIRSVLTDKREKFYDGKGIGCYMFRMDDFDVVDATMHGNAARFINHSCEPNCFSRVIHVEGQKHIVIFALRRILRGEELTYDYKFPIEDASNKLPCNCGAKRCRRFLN

For `C=CC(=O)N(C)c1nc(NC2CCN(C)CC2)c2cc(OC)c(OCCCN3CCCC3)cc2n1`, the figures for the Activity entry in data set [1] and in [7] were “Non-Toxic” and 60700 Da, respectively. The molecule also registered an AUC(0-t) at 24 h in data set [2] of 208 ng·h/mL. Moreover, the negative logarithm of the IC50 (pIC50) in data set [3] is 8.30; in data set [6], less than 4.70; in [8] it was less than 4.70. Further, the result in data set [4] was Active. Further, in data set [5], the inhibition entry was “Tde”. Further, the inhibition entry with MDA-MB-231 was “Active”.

As a reminder, the AUC(0-t) is exposure summed from dosing to a finite time, without extrapolation to infinity. Lower therefore signals low exposure. As usually defined, the pIC50 is the negative decadic logarithm of the IC50, by convention in mol/L.
